# Test results reported in PMC3125470 (Biochemistry, 2011).
# Target: T1, MsPat (MSMEG_5458) (Mycolicibacterium smegmatis, UniProt A0R3F9)
# T1 sequence (A0R3F9 1-333): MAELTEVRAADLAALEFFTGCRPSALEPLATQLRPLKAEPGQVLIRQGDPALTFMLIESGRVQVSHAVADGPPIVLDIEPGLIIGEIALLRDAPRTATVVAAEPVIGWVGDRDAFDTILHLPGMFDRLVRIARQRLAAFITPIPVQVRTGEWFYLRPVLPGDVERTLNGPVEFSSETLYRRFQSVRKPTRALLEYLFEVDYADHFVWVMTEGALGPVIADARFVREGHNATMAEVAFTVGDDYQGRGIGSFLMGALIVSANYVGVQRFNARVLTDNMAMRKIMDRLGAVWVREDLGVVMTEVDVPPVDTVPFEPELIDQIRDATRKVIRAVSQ
# Assay: fluorescent labeling of ACS and time-dependent ACS inactivation
# Type: biochemical
# Settings: 1 mM cGMP in place of cAMP; weak activator, allosteric
compound,measurement,value
Nc1nc2c(ncn2[C@@H]2O[C@@H]3COP(=O)(O)O[C@H]3[C@H]2O)c(=O)[nH]1 [cGMP],fluorescent labeling of ACS and time-dependent ACS inactivation,Much weaker labeling of ACS was observed when cAMP was replaced with cGMP
